From US10947196B2, “Beta adrenergic agonist and methods of using the same” (CURASEN THERAPEUTICS, INC., priority 2019, dated 2021)
Where two headings read alike, the source gives them in different places.

Tests used:
[1] = Microsomal stability (human); type: in vitro ADME; conditions: liver microsomes 0.5 mg/mL; method gives CLint in μL/min/mg protein
Protocol: (§1) The master solution was prepared as follows.
(§2) With NADPH: 10 μL of 20 mg/mL liver microsomes and 40 μL of 10 mM NADPH were added to the incubations. The final concentrations of microsomes and NADPH were 0.5 mg/mL and 1 mM, respectively.
(§3) Without NADPH: 10 μL of 20 mg/mL liver microsomes and 40 μL of ultra-pure H2O were added to the incubations. The final concentration of microsomes was 0.5 mg/mL.
(§4) The reaction was started with the addition of 4 μL of 3, 10, 30 and 100 μM test compound solution or control compound solution at the final concentration of 0.03, 0.1, 0.3 and 1 μM and carried out at 37° C.
(§5) Aliquots of 50 μL were taken from the reaction solution at 0, 15, 30, 45 and 60 min. The reaction was stopped by the addition of 4 volumes of cold acetonitrile with IS (100 nM alprazolam, 200 nM labetalol, 200 nM caffeine and 2 μM ketoprofen). Samples were centrifuged at 3, 220 g for 40 minutes. Aliquot of 100 μL of the supernatant was mixed with 100 μL of ultra-pure H2O and then used for LC-MS/MS analysis.
(§6) Peak areas were determined from extracted ion chromatograms. The slope value, k, was determined by linear regression of the natural logarithm of the remaining percentage of the parent drug vs. incubation time curve.
(§7) The in vitro half-life (in vitro t1/2) was determined from the slope value: in vitro t1/2=−(0.693/k) […]

[2] = Microsomal stability (dog); type: in vitro ADME; conditions: liver microsomes 0.5 mg/mL; method gives CLint in μL/min/mg protein
Protocol: as §1, §2, §3, §4, §5, §6, §7

B3-AR = B3-AR (Homo sapiens (Human), UniProt P13945); test: cAMP potency assay, B3-AR expressing CHO-K1 cells; type: cell-based
Chain of B3-AR (P13945 whole entry, species assumed): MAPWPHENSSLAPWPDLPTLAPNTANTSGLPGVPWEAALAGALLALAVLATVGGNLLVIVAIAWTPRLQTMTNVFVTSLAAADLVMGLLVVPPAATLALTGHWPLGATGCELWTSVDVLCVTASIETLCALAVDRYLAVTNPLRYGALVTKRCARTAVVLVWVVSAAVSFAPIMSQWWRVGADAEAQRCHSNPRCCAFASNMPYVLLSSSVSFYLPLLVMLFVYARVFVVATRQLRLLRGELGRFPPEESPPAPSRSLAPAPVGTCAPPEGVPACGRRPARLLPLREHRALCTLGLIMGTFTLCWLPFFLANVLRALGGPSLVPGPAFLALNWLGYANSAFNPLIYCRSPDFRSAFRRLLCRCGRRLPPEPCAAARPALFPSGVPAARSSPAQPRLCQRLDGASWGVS

[3] = Hepatocyte stability (monkey); type: in vitro ADME; conditions: 0.5×10^6 viable cells/mL
Protocol: (§8) 10 mM and 100 μM stock solutions of test compound(s) and a positive control were prepared in appropriate solvent (DMSO). In separate conical tubes, the 10 mM test compound and the positive control were diluted to 100 μM by combining 198 μL of 50% acetonitrile/50% water and 2 μL of 10 mM stock. The 100 μM test compound and the positive control were diluted to 30 μM by combining 140 μL of 50% acetonitrile/50% water and 60 μL of 100 μM stock solution. The 100 μM test compound and the positive control were diluted to 10 μM by combining 180 μL of 50% acetonitrile/50% water and 20 μL of 100 μM stock solution. The 100 μM test compound and the positive control were diluted to 3 μM by combining 194 μL of 50% acetonitrile/50% water and 6 μL of 100 μM stock solution.
(§9) Incubation medium (William's E Medium supplemented with GlutaMAX) and hepatocyte thawing medium was placed in a 37° C. water bath, and allowed to warm for at least 15 minutes prior to use. […]
(§10) Using AOPI staining solution, cells were counted and the viable cell density was determined. […]
(§11) All calculations were carried out using Microsoft Excel. Peak areas were determined from extracted ion chromatograms. […]
(§12) The in vitro half-life (in vitro t1/2) was determined from the slope value: in vitro t1/2=0.693/k

[4] = Hepatocyte stability (mouse); type: in vitro ADME; conditions: 0.5×10^6 viable cells/mL
Protocol: as §8, §9, §10, §11, §12

[5] = read-out: Average pEC50 [Receptor subtype: B3-AR, Cell type: CHO-K1] (converted)

SMILES | Microsomal stability, Human [1] | Intrinsic clearance (CLint), dog liver microsomes [2] | EC50 (B3-AR; [5]) | Hepatocyte stability, Monkey [3] | Hepatocyte stability, Mouse [4] | EC50 (B3-AR; read-out: Average EC50 [Receptor subtype: B3-AR, Cell type: CHO-K1])
CC(C)(C)NC[C@H](O)c1cccc(C(F)(F)F)n1 [Compound 03-3] | 3.49 µL/min/mg protein | 7.99 µL/min/mg protein |  |  |  | 
Cc1ncccc1[C@@H](O)CNC(C)(C)C [Compound 03-115] |  |  | > 1000 nM | 1.26 μL/min/10^6 cells | 1.08 μL/min/10^6 cells | 
CC(C)(C)NC[C@H](O)c1cccc(C#N)n1 [Compound 03-5, (S)-6-(2-(tert-butylamino)-1-hydroxyethyl)picolinonitrile] | 2.96 µL/min/mg protein | 4.32 µL/min/mg protein | > 1000 nM | 1.88 μL/min/10^6 cells | 1.46 μL/min/10^6 cells | 100 to 1000 nM
